In ChEMBL document CHEMBL1136238, “Synthesis and PDF inhibitory activities of novel benzothiazolylidenehydroxamic acid derivatives” (Bioorg Med Chem Lett, 2003):
Values after ≈ are worked out from the molar mass of the structure shown.

Key:
[1] = test system: Escherichia coli; assay: In vitro minimum inhibitory concentration required against Escherichia coli ATCC 25922; type: functional
[2] = test system: Pseudomonas aeruginosa; assay: In vitro minimum inhibitory concentration required against Pseudomonas aeruginosa ATCC 9027; type: functional
[3] = test system: Staphylococcus aureus; assay: In vitro minimum inhibitory concentration required against Staphylococcus aureus ATCC 10390; type: functional
[4] = target: Peptide deformylase (Escherichia coli) (UniProt P0A6K3); assay: In vitro inhibitory concentration required against peptide deformylase (PDF)
Sequence of Peptide deformylase (Escherichia coli) (P0A6K3 whole entry, looked up): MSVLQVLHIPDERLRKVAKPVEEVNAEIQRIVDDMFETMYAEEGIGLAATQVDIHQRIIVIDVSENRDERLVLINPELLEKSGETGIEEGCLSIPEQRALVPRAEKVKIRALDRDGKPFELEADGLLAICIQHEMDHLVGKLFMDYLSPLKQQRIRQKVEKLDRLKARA

Row | Compound | MIC [1] [µg/mL] | MIC [2] [µg/mL] | MIC [3] [µg/mL] | IC50 [4] [µM]
1 | CCCCN1/C(=C/C(=O)NO)Sc2ccccc21 | > 100 | 100 (≈ 378 µM) |  | 
2 | CCCCN1/C(=C/C(=O)NO)S(=O)(=O)c2ccccc21 | > 100 | > 100 | > 100 | > 100
3 | CCCCN1/C(=C/C(=O)O)Sc2ccccc21 | > 100 | > 100 | > 100 | > 100
4 | CCN1/C(=C/C(=O)NO)Sc2ccccc21 | > 100 | > 100 | > 100 | > 100

Other lines, results leading:

Row | MIC [1] [µg/mL] | MIC [2] [µg/mL] | MIC [3] [µg/mL] | IC50 [4] [µM] | Compound
5 | > 100 | 100 (≈ 399 µM) | 10 (≈ 39.9 µM) | 8.39 | CCCN1/C(=C/C(=O)NO)Sc2ccccc21
6 | 50 (≈ 130 µM) | 100 (≈ 259 µM) | 3 (≈ 7.78 µM) |  | CCCCC[C@H](CC(=O)NO)C(=O)N[C@H](C(=O)N1CCC[C@H]1CO)C(C)C [ACTINONIN]
7 | > 100 | 100 (≈ 359 µM) | 100 (≈ 359 µM) | 9.91 | CCCCCN1/C(=C/C(=O)NO)Sc2ccccc21
